Source: patent US10894777B2, “TG2 inhibitor piperazine compounds and uses thereof” (UNIVERSITY OF OTTAWA, priority 2016, dated 2021)

Experiments:
FXIIIa = molecular target: T1, FXIIIa (Homo sapiens, UniProt P00488); experiment: Fluorescence isopeptidase activity assay (A101 probe), FXIIIa; assay type: biochemical
T1 construct: purchased Zedira
Description: (§1) Selectivity of certain irreversible inhibitors over other members of the transglutaminase family was assessed. […] Inhibitors were tested using a continuous colorimetric assay (Leblanc, A. et al., Biochemistry (2001), 40 (28): 8335-8342) for hTG1 and hTG6 and a commercially available continuous fluorescent assay that utilizes a peptidic FRET quenched substrate (Oertel, K. et al., Anal. Biochem. (2007), 367 (2): 152-158; Király, R. et al., Amino Acids (2016), 48 (1): 31-40) for the other transglutaminases, FXIIIa and hTG3. The rate constant of enzyme inactivation (kobs) for a specific concentration of inhibitor was obtained using Kitz and Wilson conditions (Kitz, R. et al., J. Biol. Chem. (1962), 237: 3245-49). Inhibitor concentrations were adjusted to account for competition with substrates in each enzymatic reaction.
(§2) Fluorescence isopeptidase activity assay. The isopeptidase activity of pre-activated TG3a and FXIIIa (purchased from Zedira) was measured via a fluorescence-based assay (Király, R. et al., Amino Acids (2016), 48 (1): 31-40) using the commercially available peptidic FRET quenched probe A101 from Zedira. Briefly, the final concentration in the reaction mixture contained 50 mM Tris (pH 7.0), 10 mM CaCl2, 100 mM NaCl, 2.8 mM TCEP, 50 μM A101 and 14 mM H-Gly-OMe. The reaction was monitored at 25° C. using a BioTek Synergy 4 plate reader (Ex/Em: 318/413 nm).

hTG6 = hTG6 (Homo sapiens, UniProt O95932); experiment: Colorimetric transamidase activity assay (AL5 substrate), hTG6; assay type: biochemical
hTG6, sequence (O95932 whole entry): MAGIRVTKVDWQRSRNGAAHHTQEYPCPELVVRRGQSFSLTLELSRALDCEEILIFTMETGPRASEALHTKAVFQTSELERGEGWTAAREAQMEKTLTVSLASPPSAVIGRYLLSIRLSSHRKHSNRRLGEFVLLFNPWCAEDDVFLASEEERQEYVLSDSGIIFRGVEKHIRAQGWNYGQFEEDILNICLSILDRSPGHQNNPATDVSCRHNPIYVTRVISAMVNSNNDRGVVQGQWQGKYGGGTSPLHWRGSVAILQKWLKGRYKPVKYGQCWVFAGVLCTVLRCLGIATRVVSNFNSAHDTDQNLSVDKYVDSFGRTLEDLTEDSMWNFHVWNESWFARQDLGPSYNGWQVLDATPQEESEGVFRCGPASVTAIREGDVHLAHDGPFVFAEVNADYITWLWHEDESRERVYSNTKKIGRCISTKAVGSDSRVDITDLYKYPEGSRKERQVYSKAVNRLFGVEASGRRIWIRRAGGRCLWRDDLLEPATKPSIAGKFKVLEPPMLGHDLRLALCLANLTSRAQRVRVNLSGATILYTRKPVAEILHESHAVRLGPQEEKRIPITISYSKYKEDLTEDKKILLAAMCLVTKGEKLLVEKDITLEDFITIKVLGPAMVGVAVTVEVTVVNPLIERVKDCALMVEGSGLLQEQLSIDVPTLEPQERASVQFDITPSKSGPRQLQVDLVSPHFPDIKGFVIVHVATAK
Description: as §1
(§3) In Vitro Assays. Colorimetric transamidase activity assay.

TG3a = molecular target: T2, TG3a (Homo sapiens, UniProt Q08188); experiment: Fluorescence isopeptidase activity assay (A101 probe), TG3a; assay type: biochemical
T2 construct: purchased Zedira
T2 sequence (Q08188 2-467 limits assumed): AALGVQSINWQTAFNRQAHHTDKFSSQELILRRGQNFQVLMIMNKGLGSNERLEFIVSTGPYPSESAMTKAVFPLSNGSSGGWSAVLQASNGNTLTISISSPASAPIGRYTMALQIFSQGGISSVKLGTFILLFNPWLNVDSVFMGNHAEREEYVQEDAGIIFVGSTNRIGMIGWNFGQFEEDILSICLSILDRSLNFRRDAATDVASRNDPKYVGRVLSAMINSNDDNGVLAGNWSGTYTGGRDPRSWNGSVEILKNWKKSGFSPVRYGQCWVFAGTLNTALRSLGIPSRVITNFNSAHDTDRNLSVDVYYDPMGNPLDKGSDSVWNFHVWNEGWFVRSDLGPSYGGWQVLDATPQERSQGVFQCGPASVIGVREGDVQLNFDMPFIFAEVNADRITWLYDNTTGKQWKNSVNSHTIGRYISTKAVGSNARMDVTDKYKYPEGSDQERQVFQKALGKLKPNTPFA
T2 sequence (Q08188 468-693 partner limits assumed): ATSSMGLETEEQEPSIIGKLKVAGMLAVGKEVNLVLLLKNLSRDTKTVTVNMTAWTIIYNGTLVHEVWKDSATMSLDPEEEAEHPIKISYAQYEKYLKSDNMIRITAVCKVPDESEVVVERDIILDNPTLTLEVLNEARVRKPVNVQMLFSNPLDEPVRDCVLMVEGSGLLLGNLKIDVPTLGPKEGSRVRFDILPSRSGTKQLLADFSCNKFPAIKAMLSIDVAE
Description: as §1, §2

hTG1 = hTG1 (Homo sapiens, UniProt P22735); experiment: Colorimetric transamidase activity assay (AL5 substrate), hTG1; assay type: biochemical; settings: Table 9; Kitz and Wilson conditions
hTG1, sequence (P22735 whole entry): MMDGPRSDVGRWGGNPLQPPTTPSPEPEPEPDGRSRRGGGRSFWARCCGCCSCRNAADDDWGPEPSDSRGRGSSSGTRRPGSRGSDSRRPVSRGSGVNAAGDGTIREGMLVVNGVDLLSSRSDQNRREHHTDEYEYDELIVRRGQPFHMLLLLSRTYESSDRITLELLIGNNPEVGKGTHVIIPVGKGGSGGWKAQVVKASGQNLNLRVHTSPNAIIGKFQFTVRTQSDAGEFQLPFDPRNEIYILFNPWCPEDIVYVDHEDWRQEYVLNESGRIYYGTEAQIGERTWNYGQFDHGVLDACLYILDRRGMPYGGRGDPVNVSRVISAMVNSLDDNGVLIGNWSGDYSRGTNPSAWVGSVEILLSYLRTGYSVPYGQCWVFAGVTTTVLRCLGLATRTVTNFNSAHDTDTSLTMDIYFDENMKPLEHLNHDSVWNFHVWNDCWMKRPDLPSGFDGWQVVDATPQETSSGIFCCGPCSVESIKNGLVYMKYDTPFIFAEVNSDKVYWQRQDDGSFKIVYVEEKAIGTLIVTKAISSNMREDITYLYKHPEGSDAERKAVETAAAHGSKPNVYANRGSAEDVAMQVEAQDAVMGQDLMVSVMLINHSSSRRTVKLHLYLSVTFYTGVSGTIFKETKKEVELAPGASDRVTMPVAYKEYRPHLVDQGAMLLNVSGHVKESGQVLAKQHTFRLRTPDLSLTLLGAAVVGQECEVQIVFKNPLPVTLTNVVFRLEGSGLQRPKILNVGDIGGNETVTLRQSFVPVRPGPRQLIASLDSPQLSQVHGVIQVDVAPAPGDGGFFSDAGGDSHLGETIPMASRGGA
Description: as §1, §3

[1] = tested on: shRNA-transduced U87, U251 and T98G cells; experiment: Agarose colony formation assay, TG2 shRNA-transduced cells; assay type: cell-based, human; settings: 10 μM, 2 weeks
Description: Lentiviral vectors. Lentiviral knockdown vectors were prepared and used as previously described (Gundemir, S. et al., PLoS ONE 4(7):e6123, 2009; Barde, I. et al., Curr. Protoc. Neurosci. Chapter 4, Unit 4.21, 1-23, 2010).
Agarose colony formation assay. Agarose colony formation assay was conducted as described (Horman, S. R. et al., J. Biomol. Screen 18(10):1298-308, 2013; Zhang, K. et al., Tumour Biol. 35(3):2537-48, 2014) using 6-well plates and 5,000 cells in each well. 10 μM NC9 or DMSO was added to every layer at the start of the experiments. 2 mL liquid MEM containing 10 μM NC9 or DMSO was used to cover the agarose and it was changed 3 times a week. Colony growth was monitored every day and at the end of 10-15 days, the colonies were fixed with 4% paraformaldehyde, stained with 0.005% crystal violet, washed with PBS twice and 40 random pictures were taken from each treatment group. A person blinded for the treatments measured the area of the colonies using ImageJ program and the volumes were calculated from the area data under the assumption that the colonies are perfect spheres. The volumes were used to compare the effect of NC9 on colony growth.

TG2 = molecular target: T3, TG2 (Homo sapiens, UniProt P21980); experiment: In vitro GTP binding assay after inhibition of hTG2 (BODIPY GTP-γ-S); settings: inhibitor 2×KI, 30 min; 3 μM GTP-γ-S FL BODIPY
T3 sequence (P21980 1-687): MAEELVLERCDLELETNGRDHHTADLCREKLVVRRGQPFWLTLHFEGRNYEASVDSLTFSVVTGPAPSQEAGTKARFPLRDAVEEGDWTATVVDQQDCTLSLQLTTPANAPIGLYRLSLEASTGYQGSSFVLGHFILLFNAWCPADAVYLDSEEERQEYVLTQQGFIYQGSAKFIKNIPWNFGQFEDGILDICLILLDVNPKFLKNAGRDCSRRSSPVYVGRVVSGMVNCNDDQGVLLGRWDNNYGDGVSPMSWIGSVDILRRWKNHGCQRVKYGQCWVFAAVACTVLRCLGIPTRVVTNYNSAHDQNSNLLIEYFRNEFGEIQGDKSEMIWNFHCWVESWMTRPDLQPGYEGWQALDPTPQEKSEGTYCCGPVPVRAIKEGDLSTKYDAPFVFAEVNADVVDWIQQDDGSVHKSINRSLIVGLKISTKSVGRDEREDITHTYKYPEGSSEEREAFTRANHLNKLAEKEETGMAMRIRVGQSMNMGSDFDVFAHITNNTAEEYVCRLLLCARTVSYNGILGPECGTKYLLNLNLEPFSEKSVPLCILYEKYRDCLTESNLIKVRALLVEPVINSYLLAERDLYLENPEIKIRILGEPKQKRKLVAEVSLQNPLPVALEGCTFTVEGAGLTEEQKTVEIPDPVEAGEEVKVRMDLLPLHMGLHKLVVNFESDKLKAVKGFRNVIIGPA
Description: In vitro GTP binding assay. GTP binding was measured using a method similar to that reported previously (McEwen, D. P. et al., Anal. Biochem. (2001), 291 (1): 109-117). […] The buffer was then exchanged to 100 mM MOPS (pH=7.0), 1 mM EGTA and 5 mM MgCl2 to remove calcium using a 10-kDa molecular weight cut off membrane. The fluorescent GTP analog was then added to give a final concentration of 3.0 μM and fluorescence was then measured on a microplate reader after 10 minutes of incubation (Ex/Em: 490/520 nm).

[2] = Table 9, Kitz and Wilson conditions

T1 sequence (P00488 39-732 limits assumed): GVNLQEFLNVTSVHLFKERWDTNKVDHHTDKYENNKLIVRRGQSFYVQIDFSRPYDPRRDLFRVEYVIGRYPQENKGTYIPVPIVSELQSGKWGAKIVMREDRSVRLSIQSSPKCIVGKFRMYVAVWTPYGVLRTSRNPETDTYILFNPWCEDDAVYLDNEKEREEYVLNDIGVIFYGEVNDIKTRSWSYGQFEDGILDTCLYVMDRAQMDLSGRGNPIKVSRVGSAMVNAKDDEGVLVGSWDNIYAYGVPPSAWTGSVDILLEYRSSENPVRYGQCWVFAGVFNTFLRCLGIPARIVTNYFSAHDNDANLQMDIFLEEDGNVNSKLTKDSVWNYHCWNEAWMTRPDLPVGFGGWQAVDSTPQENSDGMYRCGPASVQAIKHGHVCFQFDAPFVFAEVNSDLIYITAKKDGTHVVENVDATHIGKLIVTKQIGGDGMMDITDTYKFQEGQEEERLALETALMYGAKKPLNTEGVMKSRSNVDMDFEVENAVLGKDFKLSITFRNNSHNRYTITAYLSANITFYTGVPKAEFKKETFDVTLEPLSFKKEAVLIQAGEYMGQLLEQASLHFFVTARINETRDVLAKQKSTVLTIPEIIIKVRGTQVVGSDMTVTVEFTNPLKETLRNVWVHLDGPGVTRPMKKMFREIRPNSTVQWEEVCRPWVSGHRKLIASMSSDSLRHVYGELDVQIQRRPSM

Compound: C=CC(=O)NCCCC[C@H](NC(=O)OCc1ccccc1)C(=O)NCCOCCOCCNS(=O)(=O)c1cccc2c(N(C)C)cccc12 [NC9]
- kobs (10^−3 min^−1), FXIIIa (FXIIIa; [2]): 5.91 ± 1.59 10^−3 min^−1
- kobs (10^−3 min^−1), TG6 (hTG6; [2]): 6.16 ± 0.14 10^−3 min^−1
- kobs (10^−3 min^−1), TG3a (TG3a; [2]): 1.01 ± 0.09 10^−3 min^−1
- selectivity towards hTG2 over hTG3a (TG3a; from kobs): about 390 fold
- kobs (10^−3 min^−1), TG1 (hTG1): 78.9 ± 5.9 10^−3 min^−1
- growth-retarding effect when TG2 expression is silenced [1]: completely lost

Compound: C=CC(=O)NCCCC[C@H](NC(=O)OCc1ccccc1)C(=O)N1CCN(S(=O)(=O)c2cccc3c(N(C)C)cccc23)CC1 [VA4, (S)-benzyl(6-acrylamido-1-(4-((5-(dimethylamino)naphthalen-1-yl)sulfonyl)piperazin-1-yl)-1-oxohexan-2-yl)carbamate]
- less reactive with FXIIIa compared to hTG2 (FXIIIa; from kobs): 80 fold
- inhibition of hTG6 (hTG6): no inhibition was observed
- GTP binding of hTG2 after incubation with inhibitor (TG2): abolish GTP binding nearly completely
